Measured values reported in US20090181933A1, “USE OF STEROIDS TO TREAT PERSONS SUFFERING FROM OCULAR DISORDERS” (priority 2008, published 2009).

Experiments:
[1] = test system: IOP of rabbits receiving subTenon's dexamethasone acetate; assay: Rabbit dexamethasone acetate-induced IOP elevation, topical ocular dosing; assay type: in vivo; conditions: for IOP change versus vehicle treated group: weekly subTenon's dexamethasone acetate 1 mg/kg
Protocol: Three groups of rabbits received weekly subTenon's injections of dexamethasone acetate (1 mg/kg) for 4 weeks. After two weeks, the […] of all three groups measured approximately 5 mm Hg. The rabbits were then treated with vehicle, 0.1% anecortave acetate, a 1% anecortave acetate by topical ocular dosing three times a day for the remaining 2 weeks. The IOP continued to increase in the vehicle treated group.

[2] = test system: glucocorticoid induced ocular hypertension; assay: Topical anecortave acetate eye drops in patients with glucocorticoid induced ocular hypertension; assay type: in vivo, human (patients); conditions: 1% eye drops topically three times per day for up to 12 weeks, glucocorticoid continued, reduced from 29 mm Hg
Protocol: Patients ([…]) with documented glucocorticoid induced ocular hypertension were treated topically with 1% anecortave acetate eye drops three times per day for up to 12 weeks. The patients continued to receive their glucocorticoid medication.

CC(=O)OCC(=O)[C@@]1(O)[C@H](C)C[C@H]2[C@@H]3CCC4=CC(=O)C=C[C@]4(C)[C@@]3(F)[C@@H](O)C[C@@]21C [dexamethasone acetate]
IOPs (printed TOPs) after two weeks of dexamethasone acetate ([1]; weekly subTenon's injections 1 mg/kg, after two weeks, all three groups): approximately 5 mm Hg

CC(=O)OCC(=O)[C@@]1(O)CC[C@H]2[C@@H]3CCC4=CC(=O)CC[C@]4(C)C3=CC[C@@]21C [anecortave acetate, 4,9(11)-pregnadien-17α,21-diol-3,20dione-21-acetate]
IOP after anecortave acetate treatment [2]: 19-22 mm Hg | IOP change versus vehicle treated group ([1]; 0.1% topical ocular three times a day for 2 weeks): significantly lowered | IOP change versus vehicle treated group ([1]; 1% topical ocular three times a day for 2 weeks): significantly lowered
